These results are taken from patent publication US20090018134A1, “Compounds - 945” (AstraZeneca AB, priority 2007, published 2009).

The target in the first assay is T1, mTOR (Homo sapiens, UniProt P42345).
T1 construct: FLAG; made in house
T1 sequence (P42345 1362-2549): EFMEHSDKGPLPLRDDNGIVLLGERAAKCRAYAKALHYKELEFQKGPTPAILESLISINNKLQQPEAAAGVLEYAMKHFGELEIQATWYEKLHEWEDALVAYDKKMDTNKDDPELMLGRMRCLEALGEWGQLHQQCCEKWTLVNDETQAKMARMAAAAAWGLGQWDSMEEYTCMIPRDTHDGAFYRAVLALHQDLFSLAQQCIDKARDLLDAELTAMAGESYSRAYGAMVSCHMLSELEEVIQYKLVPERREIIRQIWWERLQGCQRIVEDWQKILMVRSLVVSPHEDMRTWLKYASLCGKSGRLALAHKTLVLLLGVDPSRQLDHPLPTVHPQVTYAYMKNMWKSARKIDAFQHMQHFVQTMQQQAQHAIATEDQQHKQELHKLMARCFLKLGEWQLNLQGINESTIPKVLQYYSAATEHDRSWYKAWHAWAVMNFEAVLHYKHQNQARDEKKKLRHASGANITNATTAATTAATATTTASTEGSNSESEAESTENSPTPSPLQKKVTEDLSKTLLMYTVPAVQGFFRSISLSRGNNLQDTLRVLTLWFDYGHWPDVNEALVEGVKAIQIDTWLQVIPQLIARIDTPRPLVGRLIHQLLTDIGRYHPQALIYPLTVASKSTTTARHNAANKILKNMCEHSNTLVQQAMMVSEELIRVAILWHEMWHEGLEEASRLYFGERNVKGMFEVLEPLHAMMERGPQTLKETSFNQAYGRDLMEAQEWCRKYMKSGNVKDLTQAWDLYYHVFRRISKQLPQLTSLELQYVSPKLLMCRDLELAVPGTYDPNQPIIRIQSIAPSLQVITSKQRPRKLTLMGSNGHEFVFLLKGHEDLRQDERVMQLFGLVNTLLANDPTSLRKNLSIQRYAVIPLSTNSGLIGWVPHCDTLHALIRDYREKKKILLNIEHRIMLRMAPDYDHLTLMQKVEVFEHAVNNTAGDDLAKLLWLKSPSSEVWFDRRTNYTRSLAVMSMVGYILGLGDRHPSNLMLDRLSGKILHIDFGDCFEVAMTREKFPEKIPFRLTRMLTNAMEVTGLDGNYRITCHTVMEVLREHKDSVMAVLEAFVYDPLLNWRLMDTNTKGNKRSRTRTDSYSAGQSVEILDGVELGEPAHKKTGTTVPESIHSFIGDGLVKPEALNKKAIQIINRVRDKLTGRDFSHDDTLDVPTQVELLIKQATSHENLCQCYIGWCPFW
Nature of the assay: In Vitro mTOR Kinase Assay (Echo), Test (a)(ii). The assay is classed as biochemical. As to conditions: read-out: mTOR Kinase Assay (Echo). The essentials:
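FLAG-tagged truncated mTOR (residues 1362-2549), expressed in HEK293 and purified via the FLAG tag, phosphorylated a biotinylated peptide over 2 hours at room temperature. EDTA stopped the reaction. Phospho-T389 was detected overnight by AlphaScreen using the p70 S6K T389 antibody with Protein A/streptavidin beads; IC50 reported.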
Regarding `C[C@H]1COCCN1c1cc(C2(S(C)(=O)=O)CC2)nc(-c2ccc(NC(=O)NC3CCC3)cc2)n1` [Example 2c, 3-cyclobutyl-1-[4-[4-[(3S)-3-methylmorpholin-4-yl]-6-(1-methylsulfonylcyclopropyl)pyrimidin-2-yl]phenyl]urea], the IC50 worked out at 1.21 nM.

`C[C@H]1COCCN1c1cc(C2(S(=O)(=O)c3ccncc3)CC2)nc(-c2ccc(NC(=O)NC(C)(C)CO)cc2)n1` [Example 6j, 3-(1-hydroxy-2-methyl-propan-2-yl)-1-[4-[4-[(3S)-3-methylmorpholin-4-yl]-6-(1-pyridin-4-ylsulfonylcyclopropyl)pyrimidin-2-yl]phenyl]urea]: the IC50 amounted to 5.93 nM.

In the case of `C[C@H]1COCCN1c1cc(C2(S(=O)(=O)c3ccccc3C(F)(F)F)CC2)nc(-c2ccc(NC(=O)NC3CC3)cc2)n1` [Example 10, 3-Cyclopropyl-1-[4-[4-[(3S)-3-methylmorpholin-4-yl]-6-[1-[2-(trifluoromethyl)phenyl]sulfonylcyclopropyl]pyrimidin-2-yl]phenyl]urea], the IC50 stood at 4.48 nM.

In the case of `C[C@H]1COCCN1c1cc(C2(S(C)(=O)=O)CCC2)nc(-c2ccc(NC(=O)NC(C)(C)CO)cc2)n1` [Example 5f, 3-(1-hydroxy-2-methyl-propan-2-yl)-1-[4-[4-[(3S)-3-methylmorpholin-4-yl]-6-(1-methylsulfonylcyclobutyl)pyrimidin-2-yl]phenyl]urea], the IC50 is 7.36 nM.

For the molecule `CNC(=O)Nc1ccc(-c2nc(N3CCOC[C@@H]3C)cc(C3(S(C)(=O)=O)CCCC3)n2)cc1` [Example 4, 3-Methyl-1-[4-[4-[(3S)-3-methylmorpholin-4-yl]-6-(1-methylsulfonylcyclopentyl)pyrimidin-2-yl]phenyl]urea], the IC50 worked out at 0.699 nM.

The assay is the same for the next values; noted with them: table of enzyme assay Test (a)(ii); read-out: Test (a)(ii) IC50.
As for `CNC(=O)Nc1ccc(-c2nc(N3CCOC[C@@H]3C)cc(C3(S(C)(=O)=O)CCNCC3)n2)cc1` [Example 20a, 3-methyl-1-[4-[4-[(3S)-3-methylmorpholin-4-yl]-6-(4-methylsulfonylpiperidin-4-yl)pyrimidin-2-yl]phenyl]urea], the IC50 turned out to be 16.3 nM.

As for `C[C@H]1COCCN1c1cc(C2(S(=O)(=O)c3ccc(OC(F)F)cc3)CC2)nc(-c2ccc(NC(=O)NC3CC3)cc2)n1` [Example 64, 3-Cyclopropyl-1-[4-[4-[1-[4-(difluoromethoxy)phenyl]sulfonylcyclopropyl]-6-[(3 S)-3-methylmorpholin-4-yl]pyrimidin-2-yl]phenyl]urea], the IC50 amounted to 7.85 nM.

Consider `C[C@H]1COCCN1c1cc(C2(S(C)(=O)=O)CC2)nc(-c2ccc(NC(=O)NC3CCC3)cc2)n1` [Example 2c, 3-cyclobutyl-1-[4-[4-[(3S)-3-methylmorpholin-4-yl]-6-(1-methylsulfonylcyclopropyl)pyrimidin-2-yl]phenyl]urea], for which the IC50 is 1.86 nM.

Consider `C[C@H]1COCCN1c1cc(C2(S(=O)(=O)c3ccccc3)CC2)nc(-c2ccc(NC(=O)NC(C)(C)CO)cc2)n1` [Example 36bk, 1-[4-[4-[1-(benzenesulfonyl)cyclopropyl]-6-[(3S)-3-methylmorpholin-4-yl]pyrimidin-2-yl]phenyl]-3-(1-hydroxy-2-methylpropan-2-yl)urea], for which the IC50 came out at 4.33 nM.

As for `C[C@H]1COCCN1c1cc(C2(S(=O)(=O)C3CC3)CC2)nc(-c2ccc(NC(=O)NCCN(C)C)nc2)n1` [Example 14b, 1-[5-[4-(1-cyclopropylsulfonylcyclopropyl)-6-[(3S)-3-methylmorpholin-4-yl]pyrimidin-2-yl]pyridin-2-yl]-3-(2-dimethylaminoethyl)urea], the IC50 came to 1390 nM.

Turning to `C[C@H](CO)NC(=O)Nc1ccc(-c2nc(N3CCOC[C@@H]3C)cc(C3(S(=O)(=O)c4nccs4)CCC3)n2)cc1` [Example 98l, 3-[(2R)-1-hydroxypropan-2-yl]-1-[4-[4-[(3S)-3-methylmorpholin-4-yl]-6-[1-(1,3-thiazol-2-ylsulfonyl)cyclobutyl]pyrimidin-2-yl]phenyl]urea], the IC50 amounted to 7.89 nM.

On to `CNC(=O)Nc1ccc(-c2nc(N3CCOC[C@@H]3C)cc(C3(S(=O)(=O)c4cccc(F)c4)CC3)n2)cc1` [Example 53, 1-[4-[4-[1-(3-Fluorophenyl)sulfonylcyclopropyl]-6-[(3S)-3-methylmorpholin-4-yl]pyrimidin-2-yl]phenyl]-3-methylurea], for which the IC50 stood at 2.18 nM.

Turning to `O=C(NCCCO)Nc1ccc(-c2nc(N3CCOCC3)cc(C3(S(=O)(=O)c4ccccc4)CC3)n2)cc1` [Example 36dg, 1-[4-[4-[1-(benzenesulfonyl)cyclopropyl]-6-morpholin-4-ylpyrimidin-2-yl]phenyl]-3-(3-hydroxypropyl)urea], the IC50 was 16.4 nM.

As for `CC[C@H]1COCCN1c1cc(C2(S(=O)(=O)c3ccccc3)CC2)nc(-c2ccc(NC(=O)NCCCO)cc2)n1` [Example 74h, 1-[4-[4-[1-(benzenesulfonyl)cyclopropyl]-6-[(3S)-3-ethylmorpholin-4-yl]pyrimidin-2-yl]phenyl]-3-(3-hydroxypropyl)urea], the IC50 stood at 3.21 nM.

Consider `C[C@H]1COCCN1c1cc(C2(S(=O)(=O)c3ccncc3)CCC2)nc(-c2ccc(NC(=O)NCCO)cc2)n1` [Example 83, 3-(2-Hydroxyethyl)-1-[4-[4-[(3S)-3-methylmorpholin-4-yl]-6-(1-pyridin-4-ylsulfonylcyclobutyl)pyrimidin-2-yl]phenyl]urea], for which the IC50 turned out to be 3.46 nM.

Regarding `C[C@H]1COCCN1c1cc(C2(S(=O)(=O)c3ccccn3)CC2)nc(-c2ccc(NC(=O)NCCCO)cc2)n1` [Example 28k, 3-(3-hydroxypropyl)-1-[4-[4-[(3S)-3-methymorpholin-4-yl]-6-(1-pyridin-2-ylsulfonylcyclopropyl)pyrimidin-2-yl]phenyl]urea], the IC50 stood at 0.954 nM.

In the case of `O=C(Nc1ccc(-c2nc(N3CCOCC3)cc(C3(C(=O)NC4CC4)CC3)n2)cc1)NC1CC1` [Example 33b, N-cyclopropyl-1-[2-[4-(cyclopropylcarbamoylamino)phe-nyl]-6-morpholin-4-ylpyrimidin-4-yl]cyclopropane-1-carboxamide], the IC50 is 12 nM.

With `CCNC(=O)Nc1ccc(-c2nc(N3CCOC[C@@H]3C)cc(C3(S(=O)(=O)c4ccc(C)cc4)CC3)n2)cc1` [Example 95q, 1-ethyl-3-[4-[4-[(3S)-3-methylmorpholin-4-yl]-6-[1-(4-methylphenyl)sulfonylcyclopropyl]pyrimidin-2-yl]phenyl]urea], the IC50 amounted to 1.68 nM.

For `C[C@H]1COCCN1c1cc(C2(S(=O)(=O)CCCO)CC2)nc(-c2ccc(NC(=O)N(C)C3CC3)cc2)n1` [Example 36ck, 1-cyclopropyl-3-[4-[4-[1-(3-hydroxypropylsulfonyl)cyclopropyl]-6-[(3S)-3-methylmorpholin-4-yl]pyrimidin-2-yl]phenyl]-1-methylurea], the IC50 worked out at 2620 nM.

`O=C(Nc1ccc(-c2nc(N3CCOCC3)cc(C3(S(=O)(=O)CCO)CC3)n2)cc1)NC1CC1` [Example 47, 3-Cyclopropyl-1-[4-[4-[1-(2-hydroxyethylsulfonyl)cyclopropyl]-6-morpholin-4-ylpyrimidin-2-yl]phenyl]urea]: the IC50 is 15.5 nM.

Regarding `C[C@H]1COCCN1c1cc(C2(S(C)(=O)=O)CCC2)nc(-c2ccc(NC(=O)NC(C)(C)CO)cc2)n1` [Example 5f, 3-(1-hydroxy-2-methyl-propan-2-yl)-1-[4-[4-[(3S)-3-methylmorpholin-4-yl]-6-(1-methylsulfonylcyclobutyl)pyrimidin-2-yl]phenyl]urea], the IC50 is 4.85 nM.

Consider `C[C@H]1COCCN1c1cc(C2(S(=O)(=O)c3ccc(F)cc3)CC2)nc(-c2ccc(NC(=O)NCCC#N)cc2)n1` [Example 36y, 3-(2-cyanoethyl)-1-[4-[4-[1-(4-fluorophenyl)sulfonylcyclopropyl]-6-[(3S)-3-methylmorpholin-4-yl]pyrimidin-2-yl]phenyl]urea], for which the IC50 is 1.31 nM.

Regarding `O=C(NCCCO)Nc1ccc(-c2nc(N3CCOCC3)cc(C3(S(=O)(=O)C4CC4)CCC3)n2)cc1` [Example 13u, 1-[4-[4-(1-cyclopropylsulfonylcyclobutyl)-6-morpholin-4-ylpyrimidin-2-yl]phenyl]-3-(3-hydroxypropyl)urea], the IC50 came out at 4.77 nM.

As for `C[C@H]1COCCN1c1cc(C2(S(=O)(=O)c3ccncc3)CC2)nc(-c2ccc(NC(=O)NCc3ncc[nH]3)cc2)n1` [Example 36cw, 3-(1H-imidazol-2-ylmethyl)-1-[4-[4-[(3S)-3-methylmorpholin-4-yl]-6-(1-pyridin-4-ylsulfonylcyclopropyl)pyrimidin-2-yl]phenyl]urea], the IC50 is 49.3 nM.

As for `Cc1csc(S(=O)(=O)C2(c3cc(N4CCOC[C@@H]4C)nc(-c4ccc(NC(=O)NC5CC5)cc4)n3)CCCC2)n1` [Example 36dk, 3-cyclopropyl-1-[4-[4-[(3S)-3-methylmorpholin-4-yl]-6-[1-[(4-methyl-1,3-thiazol-2-yl)sulfonyl)cyclopentyl]pyrimidin-2-yl]phenyl]urea], the IC50 stood at 9.05 nM.

For `C[C@H]1COCCN1c1cc(C2(S(=O)(=O)c3ccc(F)cc3)CC2)nc(-c2ccc(NC(=S)NCCO)cc2)n1` [Example 37u, 1-[4-[4-[1-(4-fluorophenyl)sulfonylcyclopropyl]-6-[(3S)-3-methylmorpholin-4-yl]pyrimidin-2-yl]phenyl]-3-(2-hydroxyethyl)thiourea], the IC50 turned out to be 0.395 nM.

On to `CCNC(=O)Nc1ccc(-c2nc(N3CCOC[C@@H]3C)cc(C3(S(=O)(=O)CCO)CC3)n2)cc1` [Example 15a, 3-ethyl-1-[4-[4-[1-(2-hydroxyethylsulfonyl)cyclopropyl]-6-[(3S)-3-methylmorpholin-4-yl]pyrimidin-2-yl]phenyl]urea], for which the IC50 was determined as 0.591 nM.

On to `C[C@H]1COCCN1c1cc(C2(S(=O)(=O)C3CC3)CC2)nc(-c2ccc(NC(=O)NCCO)nc2)n1` [Example 14c, 1-[5-[4-(1-cyclopropylsulfonylcyclopropyl)-6-[(3S)-3-methylmorpholin-4-yl]pyrimidin-2-yl]pyridin-2-yl]-3-(2-hydroxyethyl)urea], for which the IC50 turned out to be 40.1 nM.

For the molecule `C[C@H]1COCCN1c1cc(C2(S(=O)(=O)CCCO)CCC2)nc(-c2ccc(NC(=O)Nc3ncns3)cc2)n1` [Example 43s, 1-[4-[4-[1-(3-hydroxypropylsulfonyl)cyclobu-tyl]-6-[(3S)-3-methylmorpholin-4-yl]pyrimidin-2-yl]phenyl]-3-(1,2,4-thiadiazol-5-yl)urea], the IC50 is 6.29 nM.

On to `C[C@H]1COCCN1c1cc(C2(S(=O)(=O)CCCO)CCCC2)nc(-c2ccc(NC(=O)NCCCO)cc2)n1` [Example 43i, 3-(3-hydroxypropyl)-1-[4-[4-[1-(3-hydroxypropyl-sulfonyl)cyclopen-tyl]-6-[(3S)-3-methylmorpholin-4-yl]pyrimidin-2-yl]phenyl]urea], for which the IC50 was found to be 102 nM.
